In US20110173707A1 (priority 2008, published 2011):
Values after ≈ are worked out from the molar mass of the structure shown. Starred links: 1 amine or outer side, 2 acyl side, 3 side chain; linkers in the order of their positions; H or OH if unused. Positions of bridges follow the written chain, without caps; N, C: chain ends. Non-standard residues stand in square brackets, D forms with d. Residues, ends and D or L forms follow the SMILES beside them. X1 = CC1CC(C2=NC(C(=O)[*:2])CS2)N1[*:1]; NMeV = CN[CH](C(=O)O)C(C)C; X2 = O=C(C(O)CO[*:2])[*:1]; Pip = O=C(O)[CH]1CCCCN1; Dhb = C/C=C(\N)C(=O)O

Experiments:
[1] = test system: type I IFN response (IFN-β induced Mx2-driven luciferase activity); assay: Type I IFN reporter cell assay (Mx2-driven Firefly luciferase, NIH3T3 Mx2-Luc2); assay type: cell-based, murine
Description: In FIG. 6A the type I IFN reporter cells were pretreated with different concentrations of Vioprolide A (0, 5, 10, 30, 50 or 100 ng/ml). After pre-treatment for two hours cells were stimulated with IFN-β (500 U/ml) in the continuous presence of the indicated Vioprolide concentrations. In FIG. 6B type I IFN reporter cells were pretreated with IFN-β ([…]). After four hours cells were additionally stimulated with different concentrations of Vioprolide A (0, 5, 10, 30, 50 or 100 ng/ml). Untreated cells were used as control (Crtl). Luciferase activity was measured after 24 hours and relative luminescent units (RLU) were calculated to one μg of protein detected by Bradford assay.
For measuring type I IFNs BAC-based reporter constructs have been used. BACs harbouring the cDNA of Firefly luciferase 2 (luc2) under control of the Mx2 promoter were engineered, NIH3T3 Mx2-Luc2. The change from Luc+ (pGL3 basic, Promega) used in the before mentioned reporter constructs to the next generation luciferase (pGL4.10, Promega) was performed, as Luc2 theoretically promised to achieve higher signal intensities and therefore might also be more practicable for further in vivo imaging experiments. This newly generated BAC was electroporated into the murine fibroblast cell line NIH/3T3.
After overnight incubation luciferase activity was determined and calculated according to protein levels to scale with the antiproliferative effects of Vioprolide. […] The median inhibitory concentration (IC50), which reduces IFN-induced responses by 50%, was calculated to be 10 ng/ml of Vioprolide A.
In FIG. 6A type I IFN reporter cells, NIH3T3 Mx2-Luc2 were pretreated with different concentrations of Vioprolide A (−, 5, 10, 30, 50 or 100 ng/ml). After pre-treatment for two hours cells were stimulated with IFN-β (500 U/ml) in the continuous presence of the indicated Vioprolide concentrations. In FIG. […] type I IFN reporter cells were pretreated with IFN-β (500 U/ml). After four hours cells were additionally stimulated with different concentrations of Vioprolide A (−, 5, 10, 30, 50 or 100 ng/ml). Untreated cells were used as control (CM). Luciferase activity was measured after 24 hours and relative luminescent units (RLU) were calculated to one μg of protein detected by Bradford assay.
Next, the effect of Vioprolide A on previously activated type I IFN signalling was addressed. This was performed to exclude a direct inhibitory interaction of this natural compound with IFN molecules or their cognate receptors type I IFN reporter cells were therefore stimulated with IFN-β four hours prior to treatment with different Vioprolide A concentrations. After overnight incubation cells were harvested and luciferase activity was assayed. […] A first significant reduction of luciferase activity (for p<0.05) could be visualized with 30 ng/ml Vioprolide A (FIG. 6B). The IC50 was identified to 20 ng/ml.

[2] = test system: type I IFN responses (IFN-inducible Mx2-promoter, tdTomato); assay: Mx2Tom reporter cells, tdTomato expression by flow cytometry; assay type: cell-based; details: IFN-β plus different concentrations, overnight incubation
Description: This allowed assessment of the Vioprolide A effect on the IFN system on a single cell level. Thus, cells were stimulated with IFN-β as wells as different concentrations of Vioprolide A and expression of tdTomato was analyzed after overnight incubation using flow cytometry.

[3] = test system: type II IFN response (IFN-γ, Gbp2 promoter); assay: Type II IFN reporter cell assay (Gbp2-driven Renilla luciferase, NIH3T3 Gbp2-RLuc); assay type: cell-based, murine; details: 500 U/ml IFN-γ, Vioprolide A one hour later, all concentrations tested (50, 100, 200 ng/ml); not related to protein
Description: IFN-γ reporter NIH/3T3 cells harbouring the recombinant BAC Gbp2RLuc were seeded on 96-well-plates and treated with IFN-γ ([…]) or left untreated (“−”). After one hour cells were exposed to different concentrations of Vioprolide A (−, 50, 100 or 200 ng/ml) and incubated overnight. Gbp2-driven Renilla luciferase expression was determined by luciferase assay. Results are expressed as fold induction of basal expression (n=3).
In addition, Vioprolide A might also modulate type II IFN responses. […] Hereby, expression of Renilla luciferase is driven by the type II IFN responsive promoter of the Gbp2 gene obtained using a BAC containing the GBP2 gene locus and following the method described above. In this experiment, reporter cells, NIH3T3 Gbp2-RLuc were seeded on […], stimulated with 500 U/ml IFN-γ and one hour later incubated with different concentrations of Vioprolide A. Afterwards the IFN response was analysed by quantifying Renilla luciferase activity. Since this assay was performed on a microtiter format, quantification of protein amounts by former used BCA as well as Bradford assay was impossible. […] Thus, evidence for a negative influence of Vioprolide A on both type I and type II IFN responses was provided.

[4] = test system: type I interferon response (Mx2-promoter controlled luciferase); assay: Bioluminescent imaging of type I IFN reporter mice (BAC Mx2Luc2); assay type: in vivo; details: 20 μg i.v., IFN-β i.v. after 1 h
Description: In FIG. 8 the inhibitory response of Vioprolide A on the type I interferon response is shown. In FIG. 8A a female type I IFN reporter mice, which contain the IFN-responsive BAC Mx2Luc2, were i.v. treated with 20 μg of Vioprolide A (in 100% EtOH). First image was taken immediately after Vioprolide A treatment. After 1 h mice were i.v. injected with 5.000 U/ml IFN-β (PBL). Three hours after IFN-treatment second series of images were taken. For control one animal was only treated with Vioprolide A or with IFN, respectively. Bioluminescent images were obtained using the IVIS200 System (Xenogen). […] Rainbow scales indicate number of photons measured per second×cm2×sr.
For the following in vivo experiment 20 μg of Vioprolide A were employed. This amount was calculated according to a publication appointing the lethal dose of this compound to be 3 mg/kg and moreover to concentrations used for anti-tumour studies Thus, type I IFN reporter mice were intravenously injected with Vioprolide A and subjected for bioluminescent imaging. After one hour mice were additionally treated with IFN-β and responses were assessed after a three-hour incubation time. […]
In FIG. 8A female type I IFN reporter mice, which contain the IFN-responsive BAC Mx2Luc2, were i.v. treated with 20 μg of Vioprolide A (in 100% EtOH). […] Rainbow scales indicate number of photons measured per second×cm2×sr.

[5] = test system: vesicular stomatitis virus (VSV); assay type: cell-based
[6] = according to a publication; cited from earlier work

C/C=C1\NC(=O)C2CSC(=N2)C2CC(C)N2C(=O)C(CC(C)C)NC(=O)C(C)NC(=O)C(O)COC(=O)C(C(C)C)N(C)C(=O)C(C(C)O)NC(=O)C2CCCCN2C1=O (stereo not shown) [Vioprolide A] (AL[X1][Dhb][Pip]T[NMeV]; linker N-C via X2; configuration not given here)
reporter expression ([1]; 100 ng/ml, IFN-β four hours prior to treatment): significant reduction of reporter expression
Mx2-driven luciferase activity at strongest inhibition ([1]; 100 ng/ml, pre-treatment 2 h before IFN-β, FIG. 6A): dramatic decrease of Mx2-driven luciferase activity down to background levels
IC50 on previously activated type I IFN signalling ([1]; IFN-β (500 U/ml) four hours prior to Vioprolide A, FIG. 6B): 0.02 µg/mL (≈ 0.0232 µM)
concentration giving first significant reduction of luciferase activity (p<0.05) ([1]; IFN-β four hours prior to Vioprolide A, FIG. 6B): 30 ng/mL
median inhibitory concentration (IC50), which reduces IFN-induced responses by 50% ([1]; Vioprolide A two hours prior to IFN-β (500 U/ml), luciferase related to protein, FIG. 6A): 0.01 µg/mL
impact on IFN responses in vitro compared within the class of Vioprolides ([1]; cell culture systems, screening): highest impact on IFN responses in vitro
effect on the type I IFN response ([1]; pre-treatment 2 h before IFN-β, all concentrations tested (5-100 ng/ml)): inhibitory effect
effect on tdTomato reporter expression [2]: dose-dependent inhibitory effect
response to type II IFN (Renilla luciferase activity) [3]: decreased response to type II IFN
light emission after IFN treatment relative to combined IFN and Vioprolide stimulation ([4]; 3 h after IFN, average radiance, FIG. 8B): ten times higher
luciferase activity by optical imaging versus animal given IFN-β alone ([4]; imaging 3 h after IFN, one mouse per stimulation): less luciferase activity
effect on IFN-mediated antiviral activities [5]: inhibitory effect on IFN-mediated antiviral activities
lethal dose [6]: 3 mg/kg
